# Earlier results as cited in patent publication US20150065582A1, “Orally Dissolving Formulations of Memantine” (Forest Laboratories Holdings Limited, priority 2006, published 2015).
# Structures can show the parent of a compound that is named as a salt.
# Assays:
# [1] = oral administration of immediate release tablets
smiles,measurement,setting,value
"CC12CC3CC(C)(C1)CC(N)(C3)C2 [memantine, 1-amino-3,5-dimethyl adamantane]",absolute bioavailability,[1],approximately 100%
CC12CC3CC(C)(C1)CC(N)(C3)C2 [Memantine HCl],solubility (classification),,highly soluble
